Target: T1, AbApeQ (Acinetobacter baumannii, UniProt Z9NHK5QJZ4)
T1 construct: full-length, pET28a, N-terminal His-tag removed with thrombin, expressed in E. coli BL21 (DE3)
Assay: X-ray crystallography (co-crystallization)
Type: binding
Conditions: 1:3 molar ratio of NADPH; 0.2 M potassium sodium tartrate, 20% PEG 3350; active site; NADPH density in two of four molecules

In the case of `NC(=O)C1=CN([C@@H]2O[C@H](COP(=O)(O)OP(=O)(O)OC[C@H]3O[C@@H](n4cnc5c(N)ncnc54)[C@H](OP(=O)(O)O)[C@@H]3O)[C@@H](O)[C@H]2O)C=CC1` [NADPH], the “X-ray crystallography (co-crystallization)” value was “We obtained the structure of the AbApeQ–NADPH complex by co-crystallization of AbApeQ and NADPH”.

Source: PMC8041823, “Structural comparison of Acinetobacter baumannii β-ketoacyl-acyl carrier protein reductases in fatty acid and aryl polyene biosynthesis” (Scientific Reports, 2021)
